Among the data in ChEMBL document CHEMBL1157539, “Thousands of chemical starting points for antimalarial lead identification” (Nature, 2010) are XC50 values, retold here.

The assay concerns Plasmodium falciparum. Description: GSK_TCMDC: Inhibition of Plasmodium falciparum 3D7 in whole erythrocytes, using parasite LDH activity as an index of growth. In kind it is functional, organism-based. As to conditions: Plasmodium falciparum, 3D7.
In the case of `CCN(CC)CCN(Cc1ccc(-c2ccc(C(F)(F)F)cc2)cc1)C(=O)Cn1c(CCc2cccc(F)c2F)nc(=O)c2sccc21`, the XC50 came to 905 nM.
Under `Cc1nc(N)nc(N)c1-c1ccc(Cl)cc1` stands 767 nM; under `CC(=O)Nc1ncc(C(=O)Nc2cccc(-c3ccc(-c4nc5cc(C(F)(F)F)ccc5[nH]4)s3)c2)s1`, 398 nM; under `Cc1cc(N)cc2nc(-c3ccc(N)cc3)[nH]c12`, 892 nM.
The compound `O=C(NCc1ccccc1)c1ccc(C(=O)NCC2CNCCO2)cc1` (stereo not drawn) yielded an XC50 of 1140 nM.
For `CC(Nc1ccc2c(c1)CCC2)C(=O)Nc1cc(C(F)(F)F)ccc1N1CCOCC1` (stereo not drawn), the XC50 came to 85.3 nM.
Under `Cc1cc(NC(=O)Nc2ccc(C(C)C)cc2)c2ccccc2n1` stands 662 nM; under `Cc1cc(NC(=O)c2ccco2)ccc1OC1CCN(Cc2ccc(F)cc2)C1` (stereo not drawn), 644 nM; under `CCCN(CC1CC1)c1ncc(-c2cccc(CNCc3ccccc3O)c2)cn1`, 700 nM.
Under `CC(C)(C(=O)Nc1ccc(N2CCC3(CCCN(CC4CC4)C3)CC2)c(Cl)c1)c1cccc(C(F)(F)F)c1` stands 2000 nM; under `Cc1ccc(C)c(CC(=O)N2CCC(n3c(C)nc4ccc(F)cc43)CC2)c1`, 193 nM.
Under `CC(C)Cn1c(Sc2ccc(C#N)c([N+](=O)[O-])c2)nnc1-c1ccc(N(C)C)cc1` stands 220 nM; under `Cc1ccc(Cc2c[nH]c(NCCSCc3ccc(CN4CCOCC4)o3)nc2=O)cn1`, 1070 nM; under `COc1cccc(C=CC(=O)N(CCN)Cc2ccccc2)c1`, 815 nM.
`COc1ccc(-c2cc3ncn(CC(=O)N4CCN(c5cccc(OC)c5)CC4)c(=O)c3s2)cc1`: the XC50 was found to be 1060 nM.
Compound `O=C(NCCNc1ccnc2cc(Cl)ccc12)c1ccccc1F` showed an XC50 of 655 nM.
Under `NC(=O)c1cc2nc(NC3CCC3)nc(Nc3cccc4[nH]ncc34)c2[nH]1` stands 732 nM; under `CC(CN(C)C)C(=O)Nc1cccc(-c2ccc(-c3nc4ccccc4[nH]3)cc2)c1` (stereo not drawn), 706 nM.
Under `CCOc1ccccc1CCNCC1CCN(CC2CCCCC2)CC1` stands 783 nM; under `COc1ccc(CNC(=O)NC2CCN(c3ccnc(Nc4ccc(OC)cc4)n3)C2)cc1` (stereo not drawn), 1000 nM; under `NC1=NC(CCc2ccccc2)N(c2ccccc2)C(N)=N1` (stereo not drawn), 77.1 nM.
Under `O=C(/C=C/c1ccc(Cl)c(Cl)c1)NCCCCCN1CC[C@H](NC(=O)c2ccc3c(c2)OCO3)C1` stands 942 nM; under `Cc1cccc2nc(-c3ccc(-c4cccc(CNCCCN5CCCC5=O)c4)s3)[nH]c12`, 590 nM.
`O=C(Nc1ccc(-c2ccc(-c3nc4cc(C(F)(F)F)ccc4[nH]3)s2)cc1)c1c[nH]cn1`: the XC50 stood at 670 nM.
Under `Cc1ccc(-c2noc(=O)n2CC(=O)Nc2ccccc2-c2ccccc2)cc1` stands 807 nM; under `COc1ccc2nccc([C@@H](O)CN3CCC(NCc4cc5ccccc5nc4O)CC3)c2c1`, 182 nM; under `COc1ccccc1C1CCN(C2CCC(NC(=O)/C=C/c3cc(F)c(F)cc3F)CC2)CC1` (stereo not drawn), 1600 nM.
Under `O=C(NCCSCc1c(F)cccc1Cl)c1cnc2c(c1)nc(-c1c[nH]c(-c3ccccc3)n1)n2CCc1c[nH]cn1` stands 807 nM; under `Cc1ccc(CN2CCCN(Cc3cccc(NC(=O)c4ccc(-c5ccccc5)cc4)c3)CC2)cc1C`, 1250 nM; under `Cc1noc(C)c1-c1ccc2c(Nc3ccccc3C(C)(C)C)c(C(=O)NCc3ccccc3)cnc2c1`, 762 nM.
Under `O=C(NCCNc1ccnc(Nc2ccc(F)cc2)n1)Nc1ccc2c(c1)OCO2` stands 682 nM; under `O=C(NC1CCN(Cc2ccccc2)C1)c1ccc(Nc2ccc(Br)cc2)nc1` (stereo not drawn), 1080 nM; under `CNC(=O)c1cnc(Nc2ccc(OCC(O)CN(C)C)cc2)nc1Nc1cccc(OC(C)C)c1` (stereo not drawn), 137 nM.
In turn, `COc1ccc(C(=O)N2CCN(c3ccc([N+](=O)[O-])c(NC4CC4)c3)CC2)cc1Br` had an XC50 of 797 nM.
In turn, `COc1ccc2ncc(Cl)c(CCN3CCC(NCc4ccc5c(n4)NC(=O)CS5)CC3)c2c1` displayed an XC50 of 590 nM.
Under `CC(Oc1cc(-n2cnc3ccc(NC(=O)CCN4CCCCC4)cc32)sc1C(N)=O)c1ccccc1Cl` (stereo not drawn) stands 400 nM; under `COc1ccc(CN2CCCC(Nc3ccc(F)c(F)c3)C2)c(O)c1` (stereo not drawn), 1090 nM.
`CCCCCCCN(Cc1ccc(OC(C)(C)C(=O)OCC)cc1)C(=O)Nc1ccccc1OC(F)(F)F` came in with an XC50 of 966 nM.
Take `CCC1CN2CCc3c([nH]c4ccccc34)C2CC1CC1=NCCc2c1[nH]c1ccc(OC)cc21` (stereo not drawn): the XC50 was found to be 641 nM.
Turning to `C=CCn1cc(C2CCN(CCCCNC(=O)c3sc(-c4ccc(C(F)(F)F)cc4)nc3CO)CC2)c2cc(OC)ccc21`, the XC50 amounted to 1040 nM.
As to `Cc1cccc(C(=O)Nc2ccnc(N(C)CCCN(C)Cc3cccc(O)c3)c2)c1`, the XC50 came to 967 nM.
Under `CN1CCN(c2ccnc3ccc(NC(=O)Nc4ccc(-c5ccccc5)cc4)cc23)CC1` stands 776 nM.
Under `C=C[C@H]1CN(CCCCCCC)CC[C@H]1C[C@@H](Cc1ccnc2ccc(OC)cc12)OC(=O)[C@](OC)(c1ccccc1)C(F)(F)F` stands 876 nM; under `CCN(CC)CCCn1c(N)c(-c2nc3ccccc3[nH]2)c2nc(C#N)c(C#N)nc21`, 267 nM; under `Cc1cccc(C(=O)NC(NC(=S)Nc2ccc([N+](=O)[O-])cc2)C(Cl)(Cl)Cl)c1` (stereo not drawn), 744 nM.
As for `Cc1cc(NC2CCN(CC3CCCCC3)CC2)nc(Nc2ccccc2Cl)n1`, the XC50 amounted to 642 nM.
As for `Cc1cccc2nc(-c3ccc(-c4cccc(CNC5CCN(C)CC5)c4)s3)[nH]c12`, the XC50 was 182 nM.
Under `CC(C)(CNC(=O)[C@@H]1CCCN(CCOc2ccc(F)c(F)c2)C1)c1nc(-c2ccc(Cl)c(O)c2)c(-c2ccncc2)[nH]1` stands 722 nM; under `COc1cccc(CN2CCC(CCOC(c3ccccc3)c3ccc(Cl)cc3)CC2)c1O` (stereo not drawn), 713 nM; under `Cc1cc(N2CCCN(C)CC2)nc(Nc2ccc(Br)cc2)n1`, 723 nM.
Under `Cc1cc(N(C)C)nc(Nc2ccc(NS(=O)(=O)c3ccccc3)cc2)n1` stands 1350 nM; under `CCOC(=O)c1cccc(NC(=O)Nc2cc(C)nc3ccccc23)c1`, 286 nM.
Under `CN1CCc2ccc(NC(=O)Nc3ccc(Cl)c(Cl)c3)cc2C1` stands 724 nM; under `CS(=O)(=O)NCCCNCc1ccc(-c2ccc(-c3nc4cc(C(F)(F)F)ccc4[nH]3)s2)cc1`, 515 nM; under `Oc1cc(Nc2ccnc3cc(-c4cccc(CN5CCCCC5)c4)ccc23)c(F)cc1Cl`, 102 nM.
Consider `CCn1c(Sc2ccc(C#N)c([N+](=O)[O-])c2)nnc1-c1cc(OC)cc(OC)c1`, for which the XC50 was determined as 565 nM.
Under `Cc1onc(-c2c(F)cccc2Cl)c1C(=O)Nc1ccccc1I` stands 952 nM.
Under `O=C(Nc1ccc(OC2CCN(Cc3ccc(F)cc3)CC2)c(Cl)c1)c1ccco1` stands 303 nM; under `O=C(N[C@@H](Cc1ccccc1)C(=O)NC1CCCCCC1)c1ccc(O)c(-c2cccc(C(F)(F)F)c2)c1`, 735 nM; under `COCCNCc1cccc(-c2ccc3c(Nc4ccc(Oc5cccnc5)cc4)ccnc3c2)c1`, 178 nM.
Under `CC(CN)OCn1cnc2c(N)ncnc21` (stereo not drawn) stands 231 nM; under `N#Cc1ccc(-c2ccc(C(=O)NCCCCN3CC=C(c4ccc5c(c4OCC4CC4)CCCC5)CC3)cc2)cc1`, 623 nM; under `COc1ccc(OCC(O)CN(Cc2ccccc2OC)C(=O)Nc2ccc(Br)cc2)cc1` (stereo not drawn), 748 nM.
